What was measured:
[1] = 101 kPa, Liquid; for viscosity: Capillary tube (Ostwald / Ubbelohde) method; for mass density: Vibrating tube method
[2] = xn = mol fraction of the nth substance listed; conditions: 101 kPa, Liquid; for viscosity: Capillary tube (Ostwald / Ubbelohde) method; for mass density: Vibrating tube method

CCCCCCCCCC [decane]
[1]
Conditions | mass density [kg/m3] | viscosity [mPa·s]
283.15 K | 737.54 | 1.082
293.15 K | 730.01 | 0.925
298.15 K | 726.22 | 0.858
303.15 K | 722.44 | 0.797

CCCCCCCCCC [decane] + CCCCCCCCN(CCCCCCCC)CCCCCCCC
[2], x2 = 0
Conditions | mass density [kg/m3] | viscosity [mPa·s]
283.15 K | 737.54 | 1.082
293.15 K | 730.01 | 0.925
303.15 K | 722.44 | 0.797

CCCCCCC [heptane]
[1]
Conditions | mass density [kg/m3] | viscosity [mPa·s]
283.15 K | 692.44 | 0.469
293.15 K | 684.05 | 0.42
298.15 K | 679.78 | 0.397
303.15 K | 675.54 | 0.377

CCCCCCC [heptane] + CCCCCCCCN(CCCCCCCC)CCCCCCCC
[2], x2 = 0
Conditions | mass density [kg/m3] | viscosity [mPa·s]
283.15 K | 692.44 | 0.469
293.15 K | 684.05 | 0.42
303.15 K | 675.54 | 0.377

CCCCCCCCC [nonane]
[1]
Conditions | mass density [kg/m3] | viscosity [mPa·s]
283.15 K | 725.58 | 0.826
293.15 K | 717.86 | 0.713
298.15 K | 713.95 | 0.667
303.15 K | 710.06 | 0.623

CCCCCCCCC [nonane] + CCCCCCCCN(CCCCCCCC)CCCCCCCC
[2], x2 = 0
Conditions | mass density [kg/m3] | viscosity [mPa·s]
283.15 K | 725.58 | 0.826
293.15 K | 717.86 | 0.713
303.15 K | 710.06 | 0.623

CCCCCCCC [octane]
[1]
Conditions | mass density [kg/m3] | viscosity [mPa·s]
283.15 K | 710.61 | 0.613
293.15 K | 702.6 | 0.541
298.15 K | 698.55 | 0.51
303.15 K | 694.5 | 0.481

CCCCCCCC [octane] + CCCCCCCCN(CCCCCCCC)CCCCCCCC
[2], x2 = 0
Conditions | mass density [kg/m3] | viscosity [mPa·s]
283.15 K | 710.61 | 0.613
293.15 K | 702.6 | 0.541
303.15 K | 694.5 | 0.481

CCCCCCCCN(CCCCCCCC)CCCCCCCC [trioctylamine]
[1]
Conditions | mass density [kg/m3] | viscosity [mPa·s]
283.15 K | 817.08 | 14.25
293.15 K | 810.48 | 9.957
298.15 K | 807.26 | 8.392
303.15 K | 803.88 | 7.114

CCCCCCCCN(CCCCCCCC)CCCCCCCC [trioctylamine] + CCCCCCCC
[2]
Conditions | mass density, 283.15 K [kg/m3] | mass density, 293.15 K [kg/m3] | mass density, 303.15 K [kg/m3] | viscosity, 283.15 K [mPa·s] | viscosity, 293.15 K [mPa·s] | viscosity, 303.15 K [mPa·s]
x1 = 0.1044 | 737.14 | 729.58 | 721.95 | 1.045 | 0.899 | 0.78
x1 = 0.2005 | 755.2 | 747.83 | 740.4 | 1.63 | 1.356 | 1.145
x1 = 0.2992 | 769.49 | 762.3 | 755.07 | 2.385 | 1.933 | 1.593
x1 = 0.4001 | 780.98 | 773.93 | 766.85 | 3.399 | 2.665 | 2.145
x1 = 0.4977 | 789.85 | 782.91 | 775.97 | 4.545 | 3.491 | 2.734
x1 = 0.6012 | 797.54 | 790.72 | 783.87 | 5.969 | 4.482 | 3.46
x1 = 0.7015 | 803.68 | 796.94 | 790.09 | 7.556 | 5.594 | 4.231
x1 = 0.7978 | 808.69 | 802 | 795.3 | 9.424 | 6.848 | 5.092
x1 = 0.897 | 813.09 | 806.45 | 799.81 | 11.61 | 8.242 | 6.01
x1 = 1 | 817.08 | 810.48 | 803.88 | 14.25 | 9.957 | 7.114

CCCCCCCCN(CCCCCCCC)CCCCCCCC [trioctylamine] + CCCCCCCCC
[2]
Conditions | mass density, 283.15 K [kg/m3] | mass density, 293.15 K [kg/m3] | mass density, 303.15 K [kg/m3] | viscosity, 283.15 K [mPa·s] | viscosity, 293.15 K [mPa·s] | viscosity, 303.15 K [mPa·s]
x1 = 0.1015 | 746.06 | 738.6 | 731.08 | 1.277 | 1.072 | 0.918
x1 = 0.2014 | 761.56 | 754.29 | 746.99 | 1.932 | 1.588 | 1.326
x1 = 0.3016 | 773.78 | 766.67 | 759.52 | 2.701 | 2.163 | 1.766
x1 = 0.3988 | 783.37 | 776.38 | 769.35 | 3.656 | 2.862 | 2.273
x1 = 0.4969 | 791.34 | 784.45 | 777.53 | 4.815 | 3.685 | 2.881
x1 = 0.5956 | 798.14 | 791.33 | 784.51 | 6.134 | 4.579 | 3.514
x1 = 0.6953 | 803.91 | 797.16 | 790.4 | 7.725 | 5.664 | 4.267
x1 = 0.7943 | 808.76 | 802.07 | 795.37 | 9.548 | 6.874 | 5.069
x1 = 0.9025 | 813.41 | 806.77 | 800.13 | 11.89 | 8.466 | 6.161
x1 = 1 | 817.08 | 810.48 | 803.88 | 14.25 | 9.957 | 7.114

CCCCCCCCN(CCCCCCCC)CCCCCCCC [trioctylamine] + CCCCCCCCCC
[2]
Conditions | mass density, 283.15 K [kg/m3] | mass density, 293.15 K [kg/m3] | mass density, 303.15 K [kg/m3] | viscosity, 283.15 K [mPa·s] | viscosity, 293.15 K [mPa·s] | viscosity, 303.15 K [mPa·s]
x1 = 0.1113 | 755.32 | 748.01 | 740.66 | 1.64 | 1.371 | 1.152
x1 = 0.1979 | 766.34 | 759.17 | 751.96 | 2.266 | 1.837 | 1.514
x1 = 0.297 | 776.77 | 769.72 | 762.64 | 3.092 | 2.448 | 1.976
x1 = 0.3974 | 785.51 | 778.56 | 771.59 | 4.092 | 3.172 | 2.515
x1 = 0.5044 | 793.3 | 786.44 | 779.56 | 5.402 | 4.086 | 3.174
x1 = 0.5913 | 798.73 | 791.93 | 785.11 | 6.558 | 4.896 | 3.743
x1 = 0.6888 | 804.03 | 797.29 | 790.53 | 8.006 | 5.85 | 4.389
x1 = 0.7962 | 809.11 | 802.43 | 795.73 | 9.857 | 7.086 | 5.238
x1 = 0.8991 | 813.37 | 806.73 | 800.09 | 11.97 | 8.401 | 6.09
x1 = 1 | 817.08 | 810.48 | 803.88 | 14.25 | 9.957 | 7.114

Reference: the NIST ThermoML archive (doi:10.1016/j.jct.2013.09.017)
